According to ChEMBL document CHEMBL1201862, “PubChem BioAssay data set” (2004):
Where “and” joins values, the source holds several entries; their conditions need not be identical. Equal values may be shown once.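 Interpolation was linear, between the two tested concentrations surrounding the appropriate level; five concentrations were tested over 48 hours in 96-well plates. Abbreviation: GI50, concentration required for 50% inhibition of growth.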 Calls of active or inactive are those of the source. No stated cut-off is given here; in the data, active = GI50 up to about 1.1 µM and inactive = higher.

Tests used:
Experiment in all cases: NCI-60 cell line screen, 48 h
786-0 = test system: 786-0
A498 = test system: A498
A549 = test system: A549
ACHN = test system: ACHN
BT-549 = test system: BT-549
CAKI-1 = test system: CAKI-1
CCRF-CEM = test system: CCRF-CEM
COLO 205 = test system: COLO 205
DU-145 = test system: DU-145
EKVX = test system: EKVX
HCC 2998 = test system: HCC 2998
HCT-116 = test system: HCT-116
HCT-15 = test system: HCT-15
HL-60 = test system: HL-60
HOP-62 = test system: HOP-62
HOP-92 = test system: HOP-92
HT-29 = test system: HT-29
Hs-578T = test system: Hs-578T
IGROV-1 = test system: IGROV-1
K562 = test system: K562
KM12 = test system: KM12
LOX IMVI = test system: LOX IMVI
M14 = test system: M14
MCF7 = test system: MCF7
MDA-MB-231 = test system: MDA-MB-231
MDA-MB-435 = test system: MDA-MB-435
MDA-N = test system: MDA-N
MOLT-4 = test system: MOLT-4
Malme-3M = test system: Malme-3M
NCI-H226 = test system: NCI-H226
NCI-H23 = test system: NCI-H23
NCI-H460 = test system: NCI-H460
NCI-H522 = test system: NCI-H522
NCI/ADR-RES = test system: NCI/ADR-RES
OVCAR-3 = test system: OVCAR-3
OVCAR-4 = test system: OVCAR-4
OVCAR-5 = test system: OVCAR-5
OVCAR-8 = test system: OVCAR-8
PC-3 = test system: PC-3
RPMI-8226 = test system: RPMI-8226
RXF 393 = test system: RXF 393
SF-268 = test system: SF-268
SF-295 = test system: SF-295
SF-539 = test system: SF-539
SK-MEL-28 = test system: SK-MEL-28
SK-MEL-2 = test system: SK-MEL-2
SK-MEL-5 = test system: SK-MEL-5
SK-OV-3 = test system: SK-OV-3
SN12C = test system: SN12C
SNB-19 = test system: SNB-19
SNB-75 = test system: SNB-75
SR = test system: SR
SW-620 = test system: SW-620
T47D = test system: T47D
TK-10 = test system: TK-10
U-251 = test system: U-251
UACC-257 = test system: UACC-257
UACC-62 = test system: UACC-62
UO-31 = test system: UO-31
LXFL 529 = test system: LXFL 529

## O=C1C[C@H](Sc2ccccc2)C2(OCCO2)[C@@H](Sc2ccccc2)C1
786-0
  GI50: 2.82 µM (inactive)
A498
  GI50: 15.1 µM (inactive)
A549
  GI50: 1.87 µM (inactive)
ACHN
  GI50: 1.77 µM (inactive)
BT-549
  GI50: 1.97 µM (inactive)
CAKI-1
  GI50: 3.1 µM (inactive)
CCRF-CEM
  GI50: 282 nM (active)
COLO 205
  GI50: 4.28 µM (inactive)
DU-145
  GI50: 3.19 µM (inactive)
EKVX
  GI50: 4.52 µM (inactive)
HCC 2998
  GI50: 2.58 µM (inactive)
HCT-116
  GI50: 1.6 µM (inactive)
HCT-15
  GI50: 1.68 µM
HL-60
  GI50: 272 nM (active)
HOP-62
  GI50: 3.27 µM (inactive)
HOP-92
  GI50: 1.9 µM (inactive)
HT-29
  GI50: 1.64 µM (inactive)
Hs-578T
  GI50: 1.77 µM (inactive)
IGROV-1
  GI50: 1.5 µM (inactive)
K562
  GI50: 351 nM (active)
KM12
  GI50: 1.79 µM (inactive)
LOX IMVI
  GI50: 700 nM (active)
M14
  GI50: 1.78 µM (inactive)
MCF7
  GI50: 1.17 µM (inactive)
MDA-MB-231
  GI50: 1.64 µM (inactive)
MDA-MB-435
  GI50: 2.25 µM (inactive)
MDA-N
  GI50: 2.2 µM (inactive)
MOLT-4
  GI50: 260 nM (active)
Malme-3M
  GI50: 1.81 µM (inactive)
NCI-H226
  GI50: 2.31 µM (inactive)
NCI-H23
  GI50: 2.09 µM (inactive)
NCI-H460
  GI50: 5.19 µM (inactive)
NCI-H522
  GI50: 0.316 µM (active)
NCI/ADR-RES
  GI50: 1.88 µM (inactive)
OVCAR-3
  GI50: 2.16 µM (inactive)
OVCAR-4
  GI50: 5.07 µM (inactive)
OVCAR-5
  GI50: 3.35 µM (inactive)
OVCAR-8
  GI50: 1.73 µM (inactive)
PC-3
  GI50: 1.93 µM (inactive)
RPMI-8226
  GI50: 743 nM (active)
RXF 393
  GI50: 1 µM (active)
SF-268
  GI50: 1.87 µM (inactive)
SF-295
  GI50: 4.33 µM (inactive)
SF-539
  GI50: 0.998 µM (active)
SK-MEL-28
  GI50: 2.38 µM (inactive)
SK-MEL-2
  GI50: 10.2 µM (inactive)
SK-MEL-5
  GI50: 1.64 µM (inactive)
SK-OV-3
  GI50: 11.5 µM (inactive)
SN12C
  GI50: 2.7 µM (inactive)
SNB-19
  GI50: 11 µM (inactive)
SNB-75
  GI50: 11.9 µM (inactive)
SR
  GI50: 0.322 µM (active)
SW-620
  GI50: 1.24 µM (inactive)
T47D
  GI50: 5.13 µM (inactive)
TK-10
  GI50: 1.95 µM (inactive)
U-251
  GI50: 1.78 µM (inactive)
UACC-257
  GI50: 1.8 µM (inactive)
UACC-62
  GI50: 2.01 µM (inactive)
UO-31
  GI50: 1.23 µM (inactive)

## N#Cc1c(-c2ccccc2)cc(-c2ccccc2)n(C2OC(CO)C(O)C(O)C2O)c1=O (configuration not stated)
CCRF-CEM
  GI50: 59.8 µM (inactive) and 47.1 µM (inactive)
HL-60
  GI50: 43.9 µM (inactive) and 44.2 µM (inactive)
K562
  GI50: 44.2 µM (inactive) and 49.7 µM (inactive)
LOX IMVI
  GI50: 61.9 µM (inactive) and 63.1 µM (inactive)
LXFL 529
  GI50: 68.4 µM (inactive) and 97.5 µM (inactive)
MOLT-4
  GI50: 41 µM (inactive) and 38.2 µM (inactive)
RPMI-8226
  GI50: 69.7 µM (inactive) and 84.3 µM (inactive)
SR
  GI50: 47.3 µM (inactive)
UACC-62
  GI50: 86.5 µM (inactive) and 84.3 µM (inactive)

## O=C(O)CN(CC(=O)O)C(C(=O)O)c1ccccc1 (configuration not stated)
786-0
  GI50: > 100 µM (inactive)
A498
  GI50: > 100 µM (inactive)
A549
  GI50: > 100 µM (inactive)
ACHN
  GI50: > 100 µM (inactive)
BT-549
  GI50: > 100 µM (inactive)
CAKI-1
  GI50: > 100 µM (inactive)
CCRF-CEM
  GI50: > 100000 nM (inactive)
COLO 205
  GI50: > 100 µM (inactive)
DU-145
  GI50: > 100 µM (inactive)
EKVX
  GI50: > 100 µM (inactive)
HCC 2998
  GI50: > 100 µM (inactive)
HCT-116
  GI50: > 100 µM (inactive)
HCT-15
  GI50: > 100 µM
HL-60
  GI50: > 100000 nM (inactive)
HOP-62
  GI50: > 100 µM (inactive)
HOP-92
  GI50: > 100 µM (inactive)
HT-29
  GI50: > 100 µM (inactive)
Hs-578T
  GI50: > 100 µM (inactive)
IGROV-1
  GI50: > 100 µM (inactive)
K562
  GI50: > 100000 nM (inactive)
KM12
  GI50: > 100 µM (inactive)
LOX IMVI
  GI50: > 100000 nM (inactive)
M14
  GI50: > 100 µM (inactive)
MCF7
  GI50: > 100 µM (inactive)
MDA-MB-231
  GI50: > 100 µM (inactive)
MDA-MB-435
  GI50: > 100 µM (inactive)
MDA-N
  GI50: > 100 µM (inactive)
MOLT-4
  GI50: > 100000 nM (inactive)
Malme-3M
  GI50: > 100 µM (inactive)
NCI-H226
  GI50: > 100 µM (inactive)
NCI-H23
  GI50: > 100 µM (inactive)
NCI-H460
  GI50: > 100 µM (inactive)
NCI-H522
  GI50: > 100 µM (inactive)
NCI/ADR-RES
  GI50: > 100 µM (inactive)
OVCAR-3
  GI50: > 100 µM (inactive)
OVCAR-4
  GI50: > 100 µM (inactive)
OVCAR-5
  GI50: > 100 µM (inactive)
OVCAR-8
  GI50: > 100 µM (inactive)
PC-3
  GI50: > 100 µM (inactive)
RPMI-8226
  GI50: > 100000 nM (inactive)
RXF 393
  GI50: > 100 µM (inactive)
SF-268
  GI50: > 100 µM (inactive)
SF-295
  GI50: > 100 µM (inactive)
SF-539
  GI50: > 100 µM (inactive)
SK-MEL-28
  GI50: > 100 µM (inactive)
SK-MEL-2
  GI50: > 100 µM (inactive)
SK-MEL-5
  GI50: > 100 µM (inactive)
SK-OV-3
  GI50: > 100 µM (inactive)
SN12C
  GI50: > 100 µM (inactive)
SNB-19
  GI50: > 100 µM (inactive)
SNB-75
  GI50: > 100 µM (inactive)
SR
  GI50: > 100 µM (inactive)
SW-620
  GI50: > 100 µM (inactive)
T47D
  GI50: > 100 µM (inactive)
TK-10
  GI50: > 100 µM (inactive)
U-251
  GI50: > 100 µM (inactive)
UACC-257
  GI50: > 100 µM (inactive)
UACC-62
  GI50: > 100 µM (inactive)
UO-31
  GI50: > 100 µM (inactive)
